According to ChEMBL document CHEMBL3046031, “Comparison of Acaricidal, Insecticidal, and Nerve Activities of Halfenprox (MTI-732) and Related Compounds” (1996):
The source made the active and inactive calls. The rule behind the calls is not given here.

Legend:
Assay type in all cases: functional
Spodoptera litura [1] = experiment: Insecticidal activity against third-instar larvae of Spodoptera litura infested compound-treated cabbage leaf assessed as mortality after 48 hr
Nerve cord = experiment: Induction of repetitive firing in excised nerve cord of Periplaneta americana (American cockroach) measured up to 32 min
Tetranychus urticae [2] = experiment: Ratio of etofenprox LC50 to compound LC50 for Tetranychus urticae (two-spotted spider mite) infested kidney bean leaf disk
Procambarus clarkii = experiment: Induction of depolarization in Procambarus clarkii (crayfish) giant axons assessed as transient inward sodium currents at -100 to -20 mV holding potential at 2 x 10 '-5 M
Periplaneta americana = experiment: Insecticidal activity against Periplaneta americana (American cockroach) assessed as paralysis/mortality compound injected into abdomen after 24 hr
Tetranychus urticae [3] = experiment: Acaricidal activity against Tetranychus urticae (two-spotted spider mite) infested kidney bean leaf disk assessed as mortality measured after 48 hr
Spodoptera litura [4] = experiment: Insecticidal activity against third-instar larvae of Spodoptera litura infested compound-treated cabbage leaf assessed as mortality after 48 hr in presence of piperonyl butoxide

For `CC(C)(COCc1cccc(Oc2ccccc2)c1)c1ccc(OC(F)(F)Br)cc1` [halfenprox], the “log(1/LC50)” value (Spodoptera litura [1]) was 4.83, the “log(1/MEC)” value (Nerve cord) was 6.57 and the RatioLC50 (Tetranychus urticae [2]) was 200. The Activity (Procambarus clarkii) was “Active”, the “log(1/MLD)” value (Periplaneta americana) was 9.67 and the “log(1/LC50)” value (Tetranychus urticae [3]) was 5.77. For the same compound, the “log(1/MLD)” value (Spodoptera litura [4]) was 9.77.

With `CC(C)(COCc1cccc(Oc2ccccc2)c1)c1ccc(OC(F)(F)F)cc1` the “log(1/LC50)” value (Spodoptera litura [1]) was 5.36, the “log(1/MEC)” value (Nerve cord) was 7.45 and the Activity (Procambarus clarkii) was “Active”. The “log(1/MLD)” value (Periplaneta americana) was 9.64, the “log(1/LC50)” value (Tetranychus urticae [3]) was 5.14 and the “log(1/MLD)” value (Spodoptera litura [4]) was 9.75.

`CCOc1ccc(C(C)(C)COCc2cccc(Oc3ccccc3)c2)cc1` [ETOFENPROX] was tested, and the “log(1/LC50)” value (Spodoptera litura [1]) was 4.68, the “log(1/MEC)” value (Nerve cord) was 8 and the Activity (Procambarus clarkii) was “Active”. The “log(1/MLD)” value (Periplaneta americana) was 9.49, the “log(1/LC50)” value (Tetranychus urticae [3]) was 3.48 and the “log(1/MLD)” value (Spodoptera litura [4]) was 9.79.

`CC(C)(COCc1cccc(Oc2ccccc2)c1)c1ccc(OC(F)F)cc1` was tested, and the “log(1/LC50)” value (Spodoptera litura [1]) was 4.7, the “log(1/MEC)” value (Nerve cord) was 7.73 and the Activity (Procambarus clarkii) was “Active”. The “log(1/MLD)” value (Periplaneta americana) was 9.03, the “log(1/LC50)” value (Tetranychus urticae [3]) was 3.75 and the “log(1/MLD)” value (Spodoptera litura [4]) was 9.52.

In the case of `CC(C)(COCc1cccc(Oc2ccccc2)c1)c1ccc(OC(F)(F)Cl)cc1`, the “log(1/LC50)” value (Spodoptera litura [1]) is reported as 4.96, the “log(1/MEC)” value (Nerve cord) is reported as 6.14 and the Activity (Procambarus clarkii) is reported as “Active”. For the same compound, the “log(1/MLD)” value (Periplaneta americana) was 9.55, the “log(1/LC50)” value (Tetranychus urticae [3]) was 5.34 and the “log(1/MLD)” value (Spodoptera litura [4]) was 9.75.
